Measurements reported in PubChem BioAssay (NCI).
Values joined by “and” are separate entries in the source; they are usually repeats but may differ in a detail not shown here. Equal entries are not always repeated.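 Each compound was tested at five concentrations against cells in 96-well plates for 48 hours. GI50: concentration for 50% inhibition of growth. The concentration for full growth arrest is given as TGI.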

Tests used:
Test in all cases: inhibition of tumour cell growth, NCI panel, 48 h
[1] = system: 786-0 renal
[2] = system: A498 renal
[3] = system: ACHN renal
[4] = system: HOP-92 NSCLC
[5] = system: MALME-3M melanoma
[6] = system: OVCAR-3 ovarian
[7] = system: OVCAR-4 ovarian
[8] = system: PC-3 prostate
[9] = system: RXF 393 renal
[10] = system: UACC-62 melanoma

Row | SMILES | GI50 [1] | TGI [1] | GI50 [2] | TGI [2] | GI50 [3] | TGI [3] | GI50 [4] | TGI [4] | GI50 [5] | TGI [5] | GI50 [6] | TGI [6] | GI50 [7] | TGI [7] | GI50 [8] | TGI [8] | GI50 [9] | TGI [9] | GI50 [10] | TGI [10] [µM]
1 | Clc1nc(Cl)c2ncn(-c3ccccc3)c2n1 | 5.51 µM | 18.3 µM | 12 µM | 25 µM | 1.96 µM | 4.12 µM | 2.15 µM | 5.51 µM | 2.01 µM | 7.12 µM | 1.69 µM | 3.46 µM | 10.5 µM | 24.5 µM | 5.29 µM | 20.1 µM | 5.66 µM | 18.8 µM | 11.3 µM | 25.3
2 | CC(=O)OC1C(O)C(C)OC(OC2C(OC(=O)C3CCC4C(C3)OC3(CC(OC(=O)/C=C/c5ccccc5)C(C)CO3)C43CO3)OC(C)C(O)C2OC(C)=O)C1O (stereo not drawn) | – | 0.132 µM | – | 0.188 µM | – | 0.648 µM | – | 0.0344 µM | – | < 0.0185 µM | – | 0.0451 µM | – | 0.051 µM | – | 0.0442 µM | – | 0.121 µM | – | 0.0382
3 | Cn1c2c(c3ccccc31)CCN1C[C@@H]3CCCC[C@H]3C[C@@H]21 | 3.58 µM | 17.5 µM | 2.08 µM | 7.07 µM | 4.32 µM | > 100 µM | 3.44 µM | 34.2 µM | 4.22 µM | > 55.8 µM | 1.95 µM | 4.74 µM | 4.36 µM | > 100 µM | 3.31 µM | > 100 µM | 0.964 µM | 7.47 µM | 4.19 µM | > 100
4 | COc1ccc(C2=C(c3ccccc3)C(=O)N3CCCC3C2)cc1 (stereo not drawn) | 1.13 µM | > 100 µM | > 100 µM | > 100 µM | 2.39 µM | > 100 µM | > 100 µM | > 100 µM | > 100 µM | > 100 µM | 57 µM | > 100 µM | 55.2 µM | > 100 µM | 1.48 µM | > 100 µM | 25.5 µM | > 100 µM | 1.92 µM | > 100
5 | O=C(O)CN1C(=O)OC(c2ccccc2)C1=O (stereo not drawn) | – | > 100 µM | – | > 100 µM | – | > 100 µM | – | > 100 µM | – | > 100 µM | – | > 100 µM | – | > 100 µM | – | > 100 µM | – | > 100 µM | – | > 100
6 | CC(C)[C@@]12C[C@@H](OC(=O)COC(=O)c3ccccc3)[C@@](C)(O1)[C@@H]1CC[C@@H](C)[C@H]1[C@@H]2OC(=O)/C=C/c1ccccc1 | 3.95 µM | > 100 µM | 0.153 µM | 0.529 µM | 0.0469 µM | – | 33.5 µM | > 100 µM | > 100 µM | > 100 µM | > 100 µM | > 100 µM | > 63.1 µM | > 100 µM | 22.7 µM | > 100 µM | 0.284 µM | > 8.44 µM | > 100 µM | > 100
7 | CCCCCc1cc(/C=C2/N=C(c3ccc[nH]3)C=C2OC)[nH]c1C | – | < 0.0459 µM | – | 0.959 µM | – | 0.113 µM | – | 0.0213 µM | – | 0.275 µM | – | 0.469 µM | – | 0.351 µM | – | 1.06 µM | – | 0.197 µM | – | 0.03
8 | CC(C)(C)N1CC1CNC(=O)C(=O)NCC1CN1C(C)(C)C (stereo not drawn) | – | 4.31 µM | – | > 6.04 µM | – | 13.7 µM | – | 33.3 µM | – | 8.68 µM | – | 46.1 µM | – | 60.2 µM | – | > 100 µM | – | 5.22 µM | – | 6.82
9 | CC(C)n1cc(-c2ccc3c(c2)N(C)CC3)c2c(NS(=O)(=O)c3ccn(C)n3)ccnc21 | 43.7 µM | > 100 µM | 36.3 µM | > 100 µM | 49.8 µM | > 100 µM | 24.6 µM | > 100 µM | > 100 µM | > 100 µM | 60.4 µM | > 100 µM | 52.5 µM | > 100 µM | 45.2 µM | > 100 µM | 29.1 µM | > 100 µM | 36.7 µM | > 100
10 | CC[C@]12C=CCN3CC[C@]4(C(=C(C(=O)OC)C1)Nc1cc5c(cc14)[C@@H]1[C@H](O5)[C@@H](O)[C@@]4(CC)CC(C(=O)OC)=C5Nc6ccccc6[C@@]56CCN1[C@@H]46)[C@@H]32 | 0.252 µM and 0.383 µM | 10 µM and 33.6 µM | 0.0729 µM and 0.283 µM | 0.788 µM and 1.17 µM | 0.189 µM and 0.275 µM | 2.86 µM and 1.79 µM | 0.114 µM and 0.138 µM | 12.4 µM and 9.48 µM | 0.412 µM and 0.431 µM | 3.45 µM and 15.2 µM | 0.24 µM and 0.255 µM | 1.13 µM and 1.29 µM | 0.365 µM and 0.397 µM | 13 µM and > 100 µM | 0.435 µM and 0.776 µM | 25 µM and 16.2 µM | 0.523 µM and 0.456 µM | 3.76 µM and 2.56 µM | 0.137 µM and 0.158 µM | –
11 | O=C(Cc1cc(O)ccc1O)NO | 18.9 µM | 34.5 µM | > 100 µM | > 100 µM | > 100 µM | > 100 µM | 21.3 µM | 59.6 µM | 29.1 µM | > 100 µM | 16.9 µM | 33.3 µM | > 100 µM | > 100 µM | > 100 µM | > 100 µM | 71.7 µM | > 100 µM | 24.7 µM | 63.3
12 | CC(C)C[C@H](NC(=O)[C@@H](Cc1ccccc1)n1ccc(Nc2ccccc2)cc1=O)B(O)O | 0.582 µM | 59 µM | 0.0262 µM | 0.36 µM | 0.358 µM | > 100 µM | 0.386 µM | 2.45 µM | 0.382 µM | 2.48 µM | 0.233 µM | 0.561 µM | 1.18 µM | 21.3 µM | 2.25 µM | 19.6 µM | 0.234 µM | 0.564 µM | 0.333 µM | 1.41
13 | O=C1CCc2cc(Br)ccc2O1 | – | > 100 µM | – | > 100 µM | – | > 100 µM | – | > 100 µM | – | > 100 µM | – | > 100 µM | – | > 100 µM | – | > 100 µM | – | 91.2 µM | – | > 100
14 | COc1ccc(-c2cc(=O)c3c(OC)c4ccoc4c(/C=C/C=O)c3o2)cc1 | 16.8 µM | 72.5 µM | 17.2 µM | 71.9 µM | 19.3 µM | > 100 µM | 16.8 µM | 98.7 µM | 3.79 µM | 8.3 µM | 3.92 µM | 25.3 µM | 3.8 µM | > 100 µM | 2.58 µM | 16.5 µM | 2.15 µM | 4.49 µM | 1.77 µM | 5.11
